In ChEMBL document CHEMBL3885881, “DrugMatrix”:

Species: Rattus norvegicus
Assay: DrugMatrix - Regimen: Daily Repeat
Format: toxicity, organism-based, Sprague-Dawley
Design: regimen Daily Repeat, gender Male, age 6-8 weeks
Conditions: in vivo, po, route oral GAVAGE, […]; for ABSOLUTE BASOPHIL / ABSOLUTE EOSINOPHIL / ABSOLUTE LYMPHOCYTE / ABSOLUTE MONOCYTE / ABSOLUTE SEGMENTED NEUTROPHIL / BASOPHIL / EOSINOPHIL / ERYTHROCYTE COUNT / HEMATOCRIT / HEMOGLOBIN / LEUKOCYTE COUNT / LYMPHOCYTE / MEAN CORPUSCULAR HEMOGLOBIN / MEAN CORPUSCULAR HEMOGLOBIN CONCENTRATION / MEAN CORPUSCULAR VOLUME / MONOCYTE / NEUTROPHIL / NUCLEATED RED BLOOD CELLS / PLATELET COUNT: tissue Blood; for ALANINE AMINOTRANSFERASE / ALBUMIN / ALKALINE PHOSPHATASE / ASPARTATE AMINOTRANSFERASE / BLOOD UREA NITROGEN / CARBON DIOXIDE / CHLORIDE / CHOLESTEROL / CREATINE PHOSPHOKINASE / CREATININE / GLUCOSE / LACTATE DEHYDROGENASE / LIPASE / PHOSPHORUS / POTASSIUM / SODIUM / TOTAL BILIRUBIN / TOTAL PROTEIN / URIC ACID: tissue Plasma
[1] = 48.8 mg/kg, 72 h, dose level Low, time 3 day
[2] = 48.8 mg/kg, 120 h, dose level Low, time 5 day
[3] = 488 mg/kg, 72 h, dose level High, time 3 day
[4] = 488 mg/kg, 120 h, dose level High, time 5 day

C=CCc1ccc2c(c1)OCO2 [SAFROLE]
ABSOLUTE BASOPHIL [1]: 0 CELLS/uL
ABSOLUTE EOSINOPHIL [1]: 0 CELLS/uL
ABSOLUTE LYMPHOCYTE [1]: 11419.67 CELLS/uL
ABSOLUTE MONOCYTE [1]: 222 CELLS/uL
ABSOLUTE SEGMENTED NEUTROPHIL [1]: 1191.67 CELLS/uL
BASOPHIL [1]: 0%
EOSINOPHIL [1]: 0%
ERYTHROCYTE COUNT [1]: 5.33 x10E6/uL
HEMATOCRIT [1]: 33.63%
HEMOGLOBIN [1]: 13.47 G/DL
LEUKOCYTE COUNT [1]: 12.83 x10E3/uL
LYMPHOCYTE [1]: 89%
MEAN CORPUSCULAR HEMOGLOBIN [1]: 25.3 pg
MEAN CORPUSCULAR HEMOGLOBIN CONCENTRATION [1]: 40.03 G/DL
MEAN CORPUSCULAR VOLUME [1]: 63.03 fL
MONOCYTE [1]: 1.67%
NEUTROPHIL [1]: 9.33%
NUCLEATED RED BLOOD CELLS [1]: 0 /100WBC
PLATELET COUNT [1]: 1123 x10E3/uL
ALANINE AMINOTRANSFERASE [1]: 71.67 u/L
ALBUMIN [1]: 4 G/DL
ALKALINE PHOSPHATASE [1]: 447.67 u/L
ASPARTATE AMINOTRANSFERASE [1]: 90.67 u/L
BLOOD UREA NITROGEN [1]: 13.33 mg/dL
CARBON DIOXIDE [1]: 26 mmol/L
CHLORIDE [1]: 101.67 MEQ/L
CHOLESTEROL [1]: 78.67 mg/dL
CREATINE PHOSPHOKINASE [1]: 266.33 u/L
CREATININE [1]: 0.21 mg/dL
GLUCOSE [1]: 149.33 mg/dL
LACTATE DEHYDROGENASE [1]: 158.33 u/L
LIPASE [1]: 11.67 u/L
PHOSPHORUS [1]: 11.73 mg/dL
POTASSIUM [1]: 6.6 MEQ/L
SODIUM [1]: 143.53 MEQ/L
TOTAL BILIRUBIN [1]: 0.23 mg/dL
TOTAL PROTEIN [1]: 5.57 G/DL
URIC ACID [1]: 1.4 mg/dL
ABSOLUTE BASOPHIL [2]: 0 CELLS/uL
ABSOLUTE EOSINOPHIL [2]: 30.67 CELLS/uL
ABSOLUTE LYMPHOCYTE [2]: 9371 CELLS/uL
ABSOLUTE MONOCYTE [2]: 61.33 CELLS/uL
ABSOLUTE SEGMENTED NEUTROPHIL [2]: 1037 CELLS/uL
BASOPHIL [2]: 0%
EOSINOPHIL [2]: 0.33%
ERYTHROCYTE COUNT [2]: 5.63 x10E6/uL
HEMATOCRIT [2]: 35.6%
HEMOGLOBIN [2]: 14.13 G/DL
LEUKOCYTE COUNT [2]: 10.5 x10E3/uL
LYMPHOCYTE [2]: 89%
MEAN CORPUSCULAR HEMOGLOBIN [2]: 25.07 pg
MEAN CORPUSCULAR HEMOGLOBIN CONCENTRATION [2]: 39.67 G/DL
MEAN CORPUSCULAR VOLUME [2]: 63.27 fL
MONOCYTE [2]: 0.67%
NEUTROPHIL [2]: 10%
NUCLEATED RED BLOOD CELLS [2]: 1 /100WBC
PLATELET COUNT [2]: 1163.33 x10E3/uL
ALANINE AMINOTRANSFERASE [2]: 65 u/L
ALBUMIN [2]: 4.07 G/DL
ALKALINE PHOSPHATASE [2]: 334.67 u/L
ASPARTATE AMINOTRANSFERASE [2]: 88.67 u/L
BLOOD UREA NITROGEN [2]: 12 mg/dL
CARBON DIOXIDE [2]: 31.33 mmol/L
CHLORIDE [2]: 102 MEQ/L
CHOLESTEROL [2]: 59.67 mg/dL
CREATINE PHOSPHOKINASE [2]: 260.67 u/L
CREATININE [2]: 0.22 mg/dL
GLUCOSE [2]: 164.33 mg/dL
LACTATE DEHYDROGENASE [2]: 263.33 u/L
LIPASE [2]: 11.67 u/L
PHOSPHORUS [2]: 10.97 mg/dL
POTASSIUM [2]: 6.08 MEQ/L
SODIUM [2]: 144.37 MEQ/L
TOTAL BILIRUBIN [2]: 0.17 mg/dL
TOTAL PROTEIN [2]: 5.7 G/DL
URIC ACID [2]: 1.8 mg/dL
ABSOLUTE BASOPHIL [3]: 0 CELLS/uL
ABSOLUTE EOSINOPHIL [3]: 78 CELLS/uL
ABSOLUTE LYMPHOCYTE [3]: 16011.33 CELLS/uL
ABSOLUTE MONOCYTE [3]: 75.33 CELLS/uL
ABSOLUTE SEGMENTED NEUTROPHIL [3]: 1335.33 CELLS/uL
BASOPHIL [3]: 0%
EOSINOPHIL [3]: 0.33%
ERYTHROCYTE COUNT [3]: 6.08 x10E6/uL
HEMATOCRIT [3]: 37.6%
HEMOGLOBIN [3]: 15.17 G/DL
LEUKOCYTE COUNT [3]: 17.5 x10E3/uL
LYMPHOCYTE [3]: 90.67%
MEAN CORPUSCULAR HEMOGLOBIN [3]: 24.93 pg
MEAN CORPUSCULAR HEMOGLOBIN CONCENTRATION [3]: 40.33 G/DL
MEAN CORPUSCULAR VOLUME [3]: 61.83 fL
MONOCYTE [3]: 0.67%
NEUTROPHIL [3]: 8.33%
NUCLEATED RED BLOOD CELLS [3]: 0 /100WBC
PLATELET COUNT [3]: 1291.67 x10E3/uL
ALANINE AMINOTRANSFERASE [3]: 88.33 u/L
ALBUMIN [3]: 3.93 G/DL
ALKALINE PHOSPHATASE [3]: 421 u/L
ASPARTATE AMINOTRANSFERASE [3]: 112.67 u/L
BLOOD UREA NITROGEN [3]: 8.33 mg/dL
CARBON DIOXIDE [3]: 23.33 mmol/L
CHLORIDE [3]: 105.67 MEQ/L
CHOLESTEROL [3]: 87.33 mg/dL
CREATINE PHOSPHOKINASE [3]: 340.33 u/L
CREATININE [3]: 0.13 mg/dL
GLUCOSE [3]: 142 mg/dL
LACTATE DEHYDROGENASE [3]: 539.33 u/L
LIPASE [3]: 12 u/L
PHOSPHORUS [3]: 13.57 mg/dL
POTASSIUM [3]: 6.52 MEQ/L
SODIUM [3]: 146.57 MEQ/L
TOTAL BILIRUBIN [3]: 0.2 mg/dL
TOTAL PROTEIN [3]: 5.33 G/DL
URIC ACID [3]: 2.37 mg/dL
ABSOLUTE BASOPHIL [4]: 0 CELLS/uL
ABSOLUTE EOSINOPHIL [4]: 0 CELLS/uL
ABSOLUTE LYMPHOCYTE [4]: 12133.67 CELLS/uL
ABSOLUTE MONOCYTE [4]: 150 CELLS/uL
ABSOLUTE SEGMENTED NEUTROPHIL [4]: 1216.33 CELLS/uL
BASOPHIL [4]: 0%
EOSINOPHIL [4]: 0%
ERYTHROCYTE COUNT [4]: 6.25 x10E6/uL
HEMATOCRIT [4]: 37.83%
HEMOGLOBIN [4]: 14.97 G/DL
LEUKOCYTE COUNT [4]: 13.5 x10E3/uL
LYMPHOCYTE [4]: 89.33%
MEAN CORPUSCULAR HEMOGLOBIN [4]: 23.97 pg
MEAN CORPUSCULAR HEMOGLOBIN CONCENTRATION [4]: 39.53 G/DL
MEAN CORPUSCULAR VOLUME [4]: 60.6 fL
MONOCYTE [4]: 1%
NEUTROPHIL [4]: 9.67%
NUCLEATED RED BLOOD CELLS [4]: 0 /100WBC
PLATELET COUNT [4]: 1251.67 x10E3/uL
ALANINE AMINOTRANSFERASE [4]: 106.33 u/L
ALBUMIN [4]: 3.87 G/DL
ALKALINE PHOSPHATASE [4]: 337.67 u/L
ASPARTATE AMINOTRANSFERASE [4]: 130.67 u/L
BLOOD UREA NITROGEN [4]: 10.33 mg/dL
CARBON DIOXIDE [4]: 24 mmol/L
CHLORIDE [4]: 102.33 MEQ/L
CHOLESTEROL [4]: 116.33 mg/dL
CREATINE PHOSPHOKINASE [4]: 612.33 u/L
CREATININE [4]: 0.19 mg/dL
GLUCOSE [4]: 123.33 mg/dL
LACTATE DEHYDROGENASE [4]: 662.67 u/L
LIPASE [4]: 12.67 u/L
PHOSPHORUS [4]: 11.8 mg/dL
POTASSIUM [4]: 5.41 MEQ/L
SODIUM [4]: 142.07 MEQ/L
TOTAL BILIRUBIN [4]: 0.17 mg/dL
TOTAL PROTEIN [4]: 5.6 G/DL
URIC ACID [4]: 1.37 mg/dL
